Data reported in US20050059615A1, “Transmucosal dosage forms for brain-targeted steroid chemical delivery systems” (priority 2003, published 2005).
Read-outs that look alike come from different tables or passages of the source.

What was measured:
[1] = tested on: FSH; assay: Earlier clinical trial, single 2.5 mg buccal E2-CDS: FSH suppression; format: in vivo, postmenopausal women; settings: first 24 hour post-dose, 2.5 mg E2-CDS
Text: (§1) A brief evaluation of the results follows:

[2] = tested on: 2OHE1/16OHE1; assay: Phase I clinical study: urinary estrone and 2OHE1/16OHE1
Experimental: (§2) Even more recently, in a Phase I clinical study of postmenopausal women, two different administration regimens of a 2.86 mg E2-CDS buccal delivery tablet were evaluated for safety and effects on hormone levels. The subjects were 12 healthy postmenopausal volunteers, divided into two groups of six. In Group A, women were dosed once daily for 10 days (10 doses); in Group B, women were dosed once every other day for 13 days (7 doses).
Urine was collected for 24 hours on day 1 in both groups, and overnight (8 hours) on day 10 (Group A) and on day 13 (Group B), respectively, to determine the amounts of voided urinary estrone (E1), 2OHE1, 16OHE, and the ratios of 2OHE1 to 16OHE1.

[3] = tested on: prolactin; assay: Phase I clinical study: prolactin; format: in vivo, postmenopausal women
Text: as §1

[4] = tested on: ovariectomized female rats; assay: Lordosis quotient, female rat sexual behavior after ovariectomy; format: in vivo, Sprague Dawley rats
Experimental: Adult female Sprague Dawley rats (220-250 g) from Charles River Hungary Ltd., Godollo, Hungary, were used. Animals were kept in community cages (4 animals/cage) in a climate-controlled room (23∀2EC, 50-60% humidity), with a 14 hour light, 10 hour dark cycle of artificial lighting, using reversed light/dark cycle. Food and water were available ad libitum.
After a minimum five-day acclimatization period, animals were ovariectomized under ether anesthesia, then were left to recover for 3 weeks before testing (reconvalescence). All animals were treated in accordance with the guidelines of the European Communities Council Directive (86/609/EEC) and studies were permitted by the Institutional Animal Care Commission.
Estradiol benzoate and progesterone were obtained from Sigma Chemical Co. Inc., Budapest, Hungary. 2-Hydroxypropyl-β-cyclodextrin was purchased from Cerestar Inc., Hammond, Ind., US. […] E2-CDS as a 3% complex with HPβCD (E2-CDS-CD) was dissolved in distilled water and diluted with 27% HPβCD solution. E2-CDS-CD was synthesized by Alchem Laboratories Corporation, Alachua, Fla., US, using the procedure of Example 2 above.
After recovery from surgery, ovariectomized female rats were divided into four groups and treated once a day for five days intravenously, via a bolus injection through the tail vein, as follows: (1) control, 27% HPβCD solution; (2) 0.003 mg/kg E2-CDS dissolved in 27% HPβCD solution; (3) 0.01 mg/kg E2-CDS dissolved in 27% HPβCD solution; and (4) 0.03 mg/kg E2-CDS dissolved in 27% HPβCD solution. A minimal number of ovariectomized (8 to 12) females were used per group. Intravenous treatments either with E2-CDS or HPβCD (controls) were carried out daily for 5 days beginning 2 days prior to the first day of behavior observations, in a volume of 0.05 mL/100 g body weight.
The behavior test was conducted in a plexiglass observation cage during the dark cycle. During behavioral observations, only a dim red light was on.
An experienced and active male rat was placed in the arena 5 minutes prior to the female. […] The lordosis quotient (LQ) expresses the estrogen effect on sexual receptivity and was calculated as follows: LQ=100×number of lordoses/10 mounts The observation of the sexual behavior of each female was carried out, in the case of E2-CDS, every day for 22 days; in the case of EB, investigations were carried out every day for 10 days. […] Citrated blood samples were taken by retro-orbital sinus puncture under light ether anesthesia. The samples were stored at 4EC for one hour, then centrifuged at 1000 g for 10 minutes. Plasma was separated and stored at −80EC until assayed. Plasma LH concentrations from individual samples were measured by double antibody radioimmunoassay kits obtained from Amersham Pharmacia Biotech, Rome, Italy. […] The limit of detection was 15 pg/mL.
Behavioral changes were analyzed using the Mann-Whitney U test (Siegel, Nonparametric Statistics for the Behavioral Sciences, New York; McGraw-Hill Book Company, Inc., 1956). The Fisher exact test was used for percentage comparisons (Zar, Biostatistical Analysis, Prentice Hall, Inc., Englewood Cliffs, N.J., 1974). Serum LH data were analyzed for each time and treatment group by analysis of variance (ANOVA) followed by Bonferroni posthoc test.

[5] = Phase I clinical study: serum estradiol (E2) levels; format: in vivo, postmenopausal women; settings: 2.86 mg buccal, repeated dosing, both groups
Text: as §1

[6] = tested on: testosterone; assay: Phase I clinical study: serum testosterone; format: in vivo, postmenopausal women; settings: for testosterone levels exceeding baseline values: 72 hours after the last dose
Text: as §1

[7] = tested on: LH; assay: Phase I clinical study: LH suppression; format: in vivo, postmenopausal women
Experimental: as §2

[8] = tested on: SHBG (Sex Hormone-binding Globulin); assay: Phase I clinical study: SHBG; format: in vivo, postmenopausal women
Text: as §1

[9] = average 7 degrees of substitution, cited from earlier work
[10] = 0.003 mg/kg i.v. once a day for 5 days
[11] = 0.01 mg/kg i.v. once a day for 5 days
[12] = 0.03 mg/kg i.v. once a day for 5 days

## CN1C=CCC(C(=O)O[C@H]2CC[C@H]3[C@@H]4CCc5cc(O)ccc5[C@H]4CC[C@]23C)=C1 [E2-CDS, 17β-[(1-methyl-1,4-dihydro-3-pyridinyl)carbonyloxy]estra-1,3,5(10)-trien-3-ol]
[1]
  extent of maximum FSH suppression: 12.5%
[2]; Group A
  increase of the ratio of 2OHE1 to 16OHE1 during treatment: 63.6%
[2]; Group B
  increase of the ratio of 2OHE1 to 16OHE1 during treatment: 54.7%
[3]; end of the study (day 13), Group A
  increase in prolactin levels compared to baseline: 29.8%
[3]; end of the study (day 16), Group B
  increase in prolactin levels compared to baseline: 16%
[4]; [10]
  effect on lordosis quotient: slightly enhanced
  period of the LQ effect: 3 to 18 days
  statistical significance of LQ effect: not statistically significant
[4]; [11]
  day till which the LQ increase lasted (not statistically significant after day 11): 15 days
  effect on lordosis quotient LQ: significantly enhanced
  period of the LQ effect: day 5 to day 11
[4]; [12]
  effect on lordosis quotient LQ: significantly enhanced
  maximal value of lordosis quotient (LQ): 73
  period over which the LQ effect lasted: day 3 to day 18
[5]
  accumulation of trough E2 levels: no signs of accumulation
[6]; Group A
  testosterone levels exceeding baseline values: 14%
[6]; Group B
  testosterone levels exceeding baseline values: 28%
[6]; day 1, Group A
  mean testosterone AUC24 lower than baseline AUC24 (=C0*24): 31.1%
  minimum serum testosterone concentration: 1.3 ± 1.9 ng/dL
  time to reach minimum testosterone levels: 6.5 ± 11.7 h
[6]; day 1, Group B
  mean testosterone AUC24 lower than baseline AUC24 (=C0*24): 23.0%
  minimum serum testosterone concentration: 4.0 ± 3.9 ng/dL
  time to reach minimum testosterone levels: 7.3 ± 11.3 h
[7]; 72 hours after the last dose
  post-study LH levels: not different any more from screening/baseline values
[7]; Group A
  time of maximum LH depression: 7.3±5.3 hours post-dose
[7]; Group B
  time of maximum LH depression: 7.3±2.7 hours post-dose
[7]; first 24 hours, 2.86 mg buccal, Group A
  maximum decrease in LH from baseline: 13.8±4.9 mIU/mL
[7]; first 24 hours, 2.86 mg buccal, Group B
  maximum decrease in LH from baseline: 12.7±6.8 mIU/mL
[7]; first 24 hours, 2.86 mg buccal, Groups A and B
  decrease in LH levels from baseline: 35-40%
[8]; Group A, day 13
  SHBG concentration higher than at baseline on day 1: 22.2%
[8]; Group B, day 16
  SHBG concentration higher than at baseline on day 1: 41.2%
[9]; 20% w/v HPβCD
  solubility of E2-CDS (phase solubility data point): 6.73 mg/mL
[9]; 40% w/v HPβCD
  solubility of E2-CDS (phase solubility data point): 16.36 mg/mL
[9]; 60% w/v HPβCD
  solubility of E2-CDS (phase solubility data point): 30.19 mg/mL
